Values quoted from earlier work in publication PMC12839115, “2-Arylbenzofurans as Selective Cholinesterase Inhibitors: Design, Synthesis, and Evaluation as Alzheimer’s Disease Agents” (Biomolecules, 2026).

Biological target: T1, BChE (EC 3.1.1.8) from equine serum (Equus caballus, UniProt P81908)
T1 construct: BChE (EC 3.1.1.8) from equine serum were employed; from tissue; host or cells: equine serum
T1 sequence (P81908 whole entry): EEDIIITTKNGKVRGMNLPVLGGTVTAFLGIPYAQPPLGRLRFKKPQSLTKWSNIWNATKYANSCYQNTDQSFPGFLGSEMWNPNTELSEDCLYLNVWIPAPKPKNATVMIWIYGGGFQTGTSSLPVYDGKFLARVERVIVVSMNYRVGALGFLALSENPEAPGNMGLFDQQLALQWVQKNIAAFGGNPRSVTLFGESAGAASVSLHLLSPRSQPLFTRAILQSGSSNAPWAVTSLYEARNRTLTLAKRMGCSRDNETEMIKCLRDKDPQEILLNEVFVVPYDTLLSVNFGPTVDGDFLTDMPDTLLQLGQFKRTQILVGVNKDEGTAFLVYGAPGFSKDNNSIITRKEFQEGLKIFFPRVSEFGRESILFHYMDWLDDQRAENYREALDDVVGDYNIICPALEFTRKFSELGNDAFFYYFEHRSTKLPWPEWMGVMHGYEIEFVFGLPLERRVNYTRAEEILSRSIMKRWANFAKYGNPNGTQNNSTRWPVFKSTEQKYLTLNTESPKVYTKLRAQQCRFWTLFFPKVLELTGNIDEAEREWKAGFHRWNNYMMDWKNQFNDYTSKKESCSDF

Structure (SMILES)	IC50
Oc1cccc(-c2cc3cccc(Cl)c3o2)c1 [C00004]	13.4 ± 2.57 µM
Oc1cccc(-c2cc3cccc(Br)c3o2)c1 [C00010]	7.96 ± 0.28 µM
